The values that follow come from patent US20140221286A1, “SODIUM CHANNEL BLOCKERS REDUCE GLUCAGON SECRETION” (Gilead Sciences, Inc., priority 2011, published 2014).

Assay type in all cases: cell-based
For test [1], the system named is rat pancreatic islets. Nature of the test: Glucagon secretion in rat pancreatic islets under low glucose (3 mM), ELISA. The conditions noted are these: 3 mM glucose. (In an ELISA, binding on a coated surface is turned into a signal by an enzyme label.)
For test [2], the system named is peak Na+ current (INa) in rat isolated pancreatic α-cells. Nature of the test: Peak Na+ current (INa) in isolated pancreatic α-cells, perforated patch-clamp. Here is the method: Acutely isolated pancreatic islets were allowed to recover overnight at 37° C./5% CO2 in Islet Media (RMPI 1640 supplemented with 10 mM HEPES, 1 mM sodium pyruvate, 10% FBS, 100 U/mL penicillin, 100 μg/mL streptomycin, 2 mM L-glutamine). The islets were resuspended and then centrifuged for 3 minutes at 200×g. The supernatant was discarded and 20 mL of filtered DPBS-EDTA was added (DPBS without Ca and Mg, 3 mM EDTA (G Biosciences), 0.5% BSA (Sigma), 1.5 mM dextrose (Sigma). The islets were incubated for 3 minutes at 37° C./5% CO2 and then centrifuged for 3 minutes at 200×g. The pellet was resuspended in 5 mL of pre-warmed Accutase (Sigma) and transferred into a 60 mm suspension culture dish and incubated for 3 minutes at 37° C./5% CO2. The digested islets were centrifuged for 3 minutes at 200×g to remove the accutase and the pellet was resuspended in 20 mL of room temperature DPBS-EDTA as defined above but with BSA increased to 4%. The digested islets were gently triturated 10 times with a flamed, glass Pasteur pipette and the suspension was then applied to a […] cell strainer. The resulting single cell suspension was centrifuged for 3 minutes at 200×g and the cells were resuspended in 2 mL of pre-warmed Islet Media. The number of live cells was counted and diluted to 1×10^5 with Islet Media. […]
Membrane potential and ion channel currents were recorded 24-72 hours after dispersion using the perforated patch configuration. […] Series resistance (Rs) was monitored using a voltage step from −70 mV to 0 mV (5 ms, 0.5 Hz) and was allowed to stabilize prior to beginning the experiment (Rs<30 MOhm).
The identity of the α-cell was confirmed using cell size (membrane capacitance <6 pF) and the presence of electrical activity in low (3 mM) extracellular glucose, which are hallmarks of dispersed α-cells. […] All recordings were made using pClamp 10.2 and were analyzed using Microsoft Excel 2003, Graphpad Prism7 or OriginPro7.
Recordings of ionic currents were made at 32° C. […] INa was measured using a voltage step to 0 mV (20 ms, 0.2 Hz) from a holding potential of either −70 mV or −90 mV. […]
(In general: Patch clamp records ionic current or voltage across a cell membrane.)

Test [3] addresses hNaV1.7 (Homo sapiens, UniProt Q15858). The test is described as follows: Voltage-dependent block (VDB) of hNaV1.7, QPatch whole-cell voltage-clamp in HEK-293 cells. Conditions: 8 s prepulse to −60 mV; at a given concentration (not given). As to the method: Voltage-dependent block (VDB) of […] was determined by whole-cell voltage-clamp recordings of sodium current using a QPatch 16× automated electrophysiological system in HEK 293 cells overexpressing Nav 1.3 and Nav 1.7 sodium channels, respectively. VDB of peak current was measured using an 8 s conditioning prepulse (to -55 mV for NaV1.3 and to −60 mV for […]) followed by a test pulse (0 mV, 20 ms). Currents are normalized to the peak current recorded in the absence of drug and expressed as percent inhibition. […] Glucagon secretion in the cells was induced by the treatment with veratridine at 30 μM for 1 hour in Krebs-Ringer buffer containing 0.1% BSA. Percent inhibition of glucagon secretion by Na channel blockers was calculated from the reduction of veratridine-induced glucagon secretion in the absence of drug.
The cells were continuously maintained in a humidified, 5% CO2 atmosphere at 37° C. in MEM growth medium supplemented with 10% FBS, 2 mM L-glutamine, 100 U/mL penicillin, 100 μg/mL streptomycin, 0.6 mg/mL G418 and 2 μg/mL blastocydin.
Whole-cell voltage-clamp recordings were used to measure the activity of test compounds against hNaV1.3 and hNaV1.7. Sodium currents were recorded at room temperature using a QPatch 16× automated electrophysiological system (Sophion Bioscience, Copenhagen, Denmark). Cells were washed with PBS and then incubated with Detachin for 2 minutes at room temperature. Cells were then resuspended in growth media, pelleted by centrifugation and resuspended in CHO-S-SFM II serum free media supplemented with 100 U/mL penicillin, 100 μg/mL streptomycin and 10 mM HEPES. The cells were allowed to recover for 30 min at room temperature with constant stirring and then loaded into the QPatch cell holder.
The cells were loaded into primed single hole (2 MΩ) large QPlates and the whole-cell configuration was established using the default protocol. Cells were allowed to stabilize for 10 min after establishment of the whole-cell configuration before current was measured. […] All currents are low-pass Bessel filtered at 5 kHz and digitized at 50 kHz.
Specific voltage-clamp protocols assessing voltage-dependent block (VDB, also termed state-dependent block) are used. VDB of peak current was measured following an 8 s conditioning prepulse (to -55 mV for NaV1.3 and to −60 mV for NaV1.7) followed by a test pulse to 0 mV (20 ms). An interpulse (−120 mV, 10 ms) was used to recover non-drug bound channels from fast inactivation. The prepulse potential was determined by the steady-state inactivation curves for NaV1.3 and NaV1.7. […] Multiple applications of drug were used to ensure complete solution exchange and the cells were allowed to stabilize in the drug containing solution for two minutes. Currents were normalized to the peak current recorded in the absence of drug and expressed as percent inhibition.

Structures are written as SMILES.

hNaV1.7, sequence (Q15858 1-1977 isoform Q15858-3): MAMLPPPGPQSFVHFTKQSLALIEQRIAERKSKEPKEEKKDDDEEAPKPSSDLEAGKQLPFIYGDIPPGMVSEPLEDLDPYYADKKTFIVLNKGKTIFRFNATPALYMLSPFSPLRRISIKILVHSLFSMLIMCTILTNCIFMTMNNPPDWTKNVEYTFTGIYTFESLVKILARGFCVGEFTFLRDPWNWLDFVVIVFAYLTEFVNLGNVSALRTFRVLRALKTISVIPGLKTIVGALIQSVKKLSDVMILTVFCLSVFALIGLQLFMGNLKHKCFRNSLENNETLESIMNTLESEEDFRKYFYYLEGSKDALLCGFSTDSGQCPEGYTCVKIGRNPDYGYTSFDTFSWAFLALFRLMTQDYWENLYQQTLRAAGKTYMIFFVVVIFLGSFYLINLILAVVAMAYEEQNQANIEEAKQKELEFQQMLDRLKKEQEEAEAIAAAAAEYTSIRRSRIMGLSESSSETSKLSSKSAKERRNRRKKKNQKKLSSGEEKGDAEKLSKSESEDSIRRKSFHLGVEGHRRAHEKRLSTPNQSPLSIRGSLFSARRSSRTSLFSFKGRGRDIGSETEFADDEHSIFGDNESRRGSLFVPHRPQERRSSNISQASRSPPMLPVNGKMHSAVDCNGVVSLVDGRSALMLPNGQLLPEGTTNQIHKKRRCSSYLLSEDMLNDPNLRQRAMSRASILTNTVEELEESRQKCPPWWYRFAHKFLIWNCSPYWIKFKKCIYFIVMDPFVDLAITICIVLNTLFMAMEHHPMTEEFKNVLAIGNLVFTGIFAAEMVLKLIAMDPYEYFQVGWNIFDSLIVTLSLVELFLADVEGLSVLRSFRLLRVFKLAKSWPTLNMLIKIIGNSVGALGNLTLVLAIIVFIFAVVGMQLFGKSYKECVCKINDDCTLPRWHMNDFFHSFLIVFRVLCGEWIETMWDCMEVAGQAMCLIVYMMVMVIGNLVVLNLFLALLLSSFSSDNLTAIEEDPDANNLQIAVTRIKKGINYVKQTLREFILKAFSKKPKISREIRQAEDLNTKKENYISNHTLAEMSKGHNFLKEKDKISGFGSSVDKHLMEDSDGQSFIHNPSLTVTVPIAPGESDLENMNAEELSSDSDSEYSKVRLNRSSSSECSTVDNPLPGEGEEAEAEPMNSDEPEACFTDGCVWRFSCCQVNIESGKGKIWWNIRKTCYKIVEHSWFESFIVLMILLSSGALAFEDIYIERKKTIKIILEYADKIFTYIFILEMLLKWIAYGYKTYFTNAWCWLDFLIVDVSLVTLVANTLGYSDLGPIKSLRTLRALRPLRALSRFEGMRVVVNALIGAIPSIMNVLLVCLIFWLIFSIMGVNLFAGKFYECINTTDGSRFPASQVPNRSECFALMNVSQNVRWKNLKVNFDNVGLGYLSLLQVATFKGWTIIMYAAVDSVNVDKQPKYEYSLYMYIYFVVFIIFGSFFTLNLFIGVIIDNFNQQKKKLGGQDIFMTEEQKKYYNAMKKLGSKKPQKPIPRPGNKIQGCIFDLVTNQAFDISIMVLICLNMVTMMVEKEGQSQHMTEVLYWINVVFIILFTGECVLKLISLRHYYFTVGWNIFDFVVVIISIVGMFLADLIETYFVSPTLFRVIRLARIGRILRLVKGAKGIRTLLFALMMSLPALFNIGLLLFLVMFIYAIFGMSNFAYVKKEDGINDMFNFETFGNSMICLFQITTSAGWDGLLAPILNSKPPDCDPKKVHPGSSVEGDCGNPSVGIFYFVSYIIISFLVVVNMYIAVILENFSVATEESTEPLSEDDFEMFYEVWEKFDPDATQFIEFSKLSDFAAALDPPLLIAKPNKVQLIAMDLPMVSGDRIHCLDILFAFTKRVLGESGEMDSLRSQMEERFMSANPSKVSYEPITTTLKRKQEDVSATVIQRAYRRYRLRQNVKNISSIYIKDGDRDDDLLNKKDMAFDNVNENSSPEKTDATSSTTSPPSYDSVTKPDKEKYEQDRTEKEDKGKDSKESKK
hNaV1.7, sequence (Q07699 19-218 partner): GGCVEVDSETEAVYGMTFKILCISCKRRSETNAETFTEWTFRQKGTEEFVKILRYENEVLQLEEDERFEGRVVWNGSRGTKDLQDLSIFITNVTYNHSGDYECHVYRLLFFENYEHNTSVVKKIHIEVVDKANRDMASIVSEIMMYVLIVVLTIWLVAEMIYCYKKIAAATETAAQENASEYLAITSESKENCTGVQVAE

Turning to `COc1ccccc1OCC(O)CN1CCN(CC(=O)Nc2c(C)cccc2C)CC1` (racemic) [Ranolazine, ±-N-(2,6-dimethylphenyl)-4-[2-hydroxy-3-(2-methoxyphenoxy)-propyl]-1-piperazineacetamide], the “maximal reduction of glucagon secretion as compared to the vehicle control” value in test [1] (at 30 μM) came out at 53±6%. Besides, the “block of peak INa” value is reported as 25% in test [2] (10 μM, holding potential −70 mV) and 10% in test [2] (10 μM, holding potential −90 mV). In addition, the “hNav1.7 VDB % Inhibition” value in test [3] came out at 17.23%.

For the molecule `FC(F)(F)Oc1ccc(-c2ccc3nnc(C(F)(F)F)n3c2)cc1` [Compound A, 6-(4-(trifluoromethoxy)phenyl)-3-(trifluoromethyl)-[1,2,4]triazolo[4,3-α]pyridine], in test [1] (at 3 μM), the “maximal reduction of glucagon secretion as compared to the vehicle control” value is recorded as 53±8%. Moreover, the “block of peak INa” value in test [2] (1 μM, at −90 and -70 mV) was found to be 40. For the same molecule, in test [3], the “hNav1.7 VDB % Inhibition” value amounted to 87.17%.
